Laboratory results from patent US12497428B2, “Galactoside inhibitor of galectins” (GALECTO BIOTECH AB, priority 2018, dated 2025).

Columns and labels:
Galectin-3 = Galectin-3 (Homo sapiens, UniProt P17931); experiment: Fluorescence anisotropy assay, inhibition of galectin / fluorescein tagged saccharide probe interaction; type: binding
Experimental: (§1) The affinity of Example 1-28 for galectins were determined by a fluorescence anisotropy assay where the compound was used as an inhibitor of the interaction between galectin and a fluorescein tagged saccharide probe as described Sörme, P., Kahl-Knutsson, B., Huflejt, M., Nilsson, U. J., and Leffler H. (2004) Fluorescence polarization as an analytical tool to evaluate galectin-ligand interactions. Anal. Biochem. 334: 36-47, (Sörme et al., 2004) and Monovalent interactions of Galectin-1 By Salomonsson, Emma; Larumbe, Amaia; Tejler, Johan; Tullberg, Erik; Rydberg, Hanna; Sundin, Anders; Khabut, Areej; Frejd, Torbjorn; Lobsanov, Yuri D.; Rini, James M.; et al, From Biochemistry (2010), 49(44), 9518-9532, (Salomonsson et al., 2010).

Galectin-1 = Galectin-1 (Homo sapiens, UniProt P09382); experiment: as above; type: binding
Experimental: as §1

Galectin-1, sequence (P09382 whole entry): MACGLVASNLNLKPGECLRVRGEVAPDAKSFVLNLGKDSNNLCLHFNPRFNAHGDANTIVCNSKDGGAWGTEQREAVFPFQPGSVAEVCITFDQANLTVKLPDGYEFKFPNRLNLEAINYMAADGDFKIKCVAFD
Galectin-3, sequence (P17931 whole entry): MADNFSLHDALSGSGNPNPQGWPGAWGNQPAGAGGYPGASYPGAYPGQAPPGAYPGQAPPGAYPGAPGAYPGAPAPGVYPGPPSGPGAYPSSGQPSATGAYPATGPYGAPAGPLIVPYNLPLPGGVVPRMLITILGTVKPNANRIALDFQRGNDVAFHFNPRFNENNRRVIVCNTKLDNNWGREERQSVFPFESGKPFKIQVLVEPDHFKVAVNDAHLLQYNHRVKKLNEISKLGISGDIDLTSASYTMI

Kd (Galectin-3) [nM] | Kd (Galectin-1) [nM] | Compound
15 | 6500 | CC(OC1C(n2cc(-c3cc(F)c(F)c(F)c3)nn2)[C@@H](O)C(CO)O[C@@H]1Sc1cncc(Br)c1)C(=O)O (single isomer, unassigned; diastereomer 1) [Example 27]
6 | 6400 | CC(OC1C(n2cc(-c3cc(F)c(F)c(F)c3)nn2)[C@@H](O)C(CO)O[C@@H]1Sc1cncc(Br)c1)C(=O)O (single isomer, unassigned; diastereomer 2) [Example 28]
64 | 1400 | OCC1O[C@H](Sc2ccc(Cl)c(Cl)c2)C(OCc2nnn[nH]2)C(n2cc(-c3cc(F)c(Cl)c(F)c3)nn2)[C@H]1O (stereo in doubt) [Example 13, 3,4-Dichlorphenyl 3-[4-(4-chloro-3,5-difluorophenyl)-1H-1,2,3-triazol-1-yl]-3-deoxy-2-O-[(1H-tetrazol-5-yl)methyl]-1-thio-α-D-galactopyranoside]
8 | 1800 | OCC1O[C@H](Sc2ccc(Cl)c(Cl)c2)C(OCc2nnn[nH]2)C(n2cc(-c3cc(F)c(F)c(F)c3)nn2)[C@H]1O (stereo in doubt) [Example 14, 3,4-Dichlorphenyl 3-deoxy-3-[4-(3,4,5-trifluorophenyl)-1H-1,2,3-triazol-1-yl]-2-O-[(1H-tetrazol-5-yl)methyl]-1-thio-α-D-galactopyranoside]
 | 5400 | O=P(O)(O)O[C@@H]1[C@@H](n2cc(-c3cc(F)c(F)c(F)c3)nn2)[C@@H](O)[C@@H](CO)O[C@@H]1Sc1cncc(Br)c1 [Example 1, 5-Bromopyridin-3-yl 3-deoxy-3-[4-(3,4,5-trifluorophenyl)-1H-1,2,3-triazol-1-yl]-2-O-phospho-1-thio-α-D-galactopyranoside]
3 | 3150 | O=S(=O)(O)O[C@@H]1[C@@H](n2cc(-c3cc(F)c(F)c(F)c3)nn2)[C@@H](O)[C@@H](CO)O[C@@H]1Sc1cncc(Br)c1 [Example 4, 5-Bromopyridin-3-yl 3-deoxy-3-[4-(3,4,5-trifluorophenyl)-1H-1,2,3-triazol-1-yl]-2-O-sulfo-1-thio-α-D-galactopyranside]
17 |  | O=C(O)CO[C@@H]1[C@@H](n2cc(-c3cc(F)c(F)c(F)c3)nn2)[C@@H](O)[C@@H](CO)O[C@@H]1Sc1ccc(Cl)c(Cl)c1 [Example 6, 3,4-Dichlorphenyl 2-O-carboxymethyl-3-deoxy-3-[4-(3,4,5-trifluorophenyl)-1H-1,2,3-triazol-1-yl]-1-thio-α-D-galactopyranoside]
24 | 9200 | OC[C@H]1O[C@H](Sc2cncc(Br)c2)[C@H](OCc2cocn2)[C@@H](n2cc(-c3cc(F)c(F)c(F)c3)nn2)[C@H]1O [Example 10, 5-Bromopyridin-3-yl 3-deoxy-3-[4-(3,4,5-trifluorophenyl)-1H-1,2,3-triazol-1-yl]-2-O-(oxazol-4-ylmethyl)-1-thio-α-D-galactopyranoside]
17 | 260 | OC[C@H]1O[C@H](Sc2cncc(Br)c2)[C@H](OCc2cc(F)c(O)c(F)c2)[C@@H](n2cc(-c3cc(F)c(F)c(F)c3)nn2)[C@H]1O [Example 11, 5-Bromopyridin-3-yl 3-deoxy-3-[4-(3,4,5-trifluorophenyl)-1H-1,2,3-triazol-1-yl]-2-O-(3,5-difluoro-4-hydroxybenzyl)-1-thio-α-D-galactopyranoside]
16 | 2400 | OC[C@H]1O[C@H](Sc2cncc(Br)c2)[C@H](OCc2nnn[nH]2)[C@@H](n2cc(-c3cc(F)c(F)c(F)c3)nn2)[C@H]1O [Example 12, 5-Bromopyridin-3-yl 3-deoxy-3-[4-(3,4,5-trifluorophenyl)-1H-1,2,3-triazol-1-yl]-2-O-[(1H-tetrazol-5-yl)methyl]-1-thio-α-D-galactopyranoside]
